Patent publication US20230219963A1, “PYRROLO[2,3-D]PYRIMIDINE DERIVATIVES” (Pfizer Inc., priority 2020, published 2023)
pIC50: −log10 of the molar value.

Legend:
TYK2 = TYK2 (Homo sapiens, UniProt P29597); assay: JAK Caliper Enzyme Assay at 1 mM ATP (TYK2); type: biochemical
Procedure: (§1) JAK Caliper Enzyme Assay at 1 mM ATP
(§2) Test article was solubilized in dimethyl sulfoxide (DMSO) to a stock concentration of 30 mM. An 11-point half log dilution series was created in DMSO with a top concentration of 600 μM. […] The compound plates were diluted 1 to 60 resulting in a top final assay compound concentration of 10 μM and a 2% DMSO concentration. Test article and assay controls were added to a 384-well plate. Reaction mixtures contained 20 mM HEPES, pH 7.4, 10 mM magnesium chloride, 0.01% bovine serum albumin (BSA), 0.0005% Tween 20, 1 mM ATP and 1 μM peptide substrate. […] The assays were initiated by the addition of 20 nM JAK1, 1 nM JAK2, 1 nM JAK3 or 1 nM TYK2 enzyme and were incubated at room temperature for three hours for JAK1, 60 minutes for JAK2, 75 minutes for JAK3 or 135 minutes for TYK2. Enzyme concentrations and incubation times were optimized for each new enzyme preps and were modified slightly over time to ensure 20%-30% phosphorylation. The assays were stopped with a final concentration of 10 mM EDTA, 0.1% Coating Reagent and 100 mM HEPES, pH=7.4. The assay plates were placed on a Caliper Life Science Lab Chip 3000 (LC3000) instrument, and each well was sampled using appropriate separation conditions to measure the unphosphorylated and phosphorylated peptide.

IFNg induced pSTATI = assay: IFNγ-induced pSTAT1 in human whole blood (CD14+ cells); type: cell-based; settings: JAK1/JAK2, read-out: IFNg induced pSTATI, cellular potency IC50
Procedure: (§3) Human whole blood was collected from healthy donors via vein puncture into Vacutainer collection tubes containing sodium heparin in accordance with Pfizer protocols (Protocol No. GOHW RDP-01) approved by the Shulman Institutional Review Board. Blood was warmed to 37° C. priorto use. Human whole blood was aliquoted (90 μL/well) in 96-well, deep-well, V-bottom plates and treated with compounds (5 μL/well) at different concentrations up to 60 μM (0.2% DMSO final) at 37° C. for 60 minutes. This was followed by a challenge with IFNα (5000 U/mL), IFNγ (100 ng/mL), IL-6 (50 ng/mL), IL-10 (30 ng/mL), IL-12 (30 ng/mL), IL-15 (30 ng/mL), IL-21 (50 ng/mL), IL-23 (25 ng/mL), IL-27 (1000 ng/mL), EPO (2 U/mL), TSLP (50 ng/mL) or PBS and incubated for 15 minutes. Anti-cell surface antibodies were added 15 minutes prior to cytokine stimulation; anti-CD3-BV421 (0.5 μL/well) to IL-6-treated and TSLP-treated samples and anti-CD14-BV421 (0.5 μL/well) to IFNγ-treated samples. Samples were treated with warm 1×Lyse/Fix buffer (700 μL/well) to terminate activation and further incubated at 37° C. for 20 minutes to lyse red blood cells. Plates were centrifuged at 300×g for 5 minutes, supernatant was aspirated, and cells were washed with 800 μL/well of staining buffer (D-PBS containing 0.1% FBS and 0.01% sodium azide). Washed cell pellets were resuspended in 350 μL/well of prechilled 90% methanol and incubated at 4° C. for 30 minutes. After the removal of 90% methanol, cells were washed once with staining buffer. All samples were finally suspended in 150 μL/well of the desired anti-phospho-STAT antibodies at 1:150 dilution in staining buffer; anti-pSTAT1-AF647 in IFNγ treated samples; anti-pSTAT1-AF488 and anti-pSTAT3-AF647 in IL-6-treated samples, anti-pSTAT3-AF647 in IFNα, IL-10, IL-21, IL-23 and IL-27 treated samples, anti-pSTAT4-AF647 in IL-12 treated samples, anti-pSTAT5-AF-647 in EPO, IL-15 and TSLP-treated samples. Human primary keratinocytes were cultured in DermaLife™ medium with supplement kit to expand cell population. Cell passages 2 to 5 were used in the assays. Cells were harvested at ˜80% confluence, suspended in warm DermaLife™ medium, aliquoted (90 μL/well) in 96-well, deep-well, V-bottom plates, and incubated at 37° C. for 30 minutes. Cells were then treated with compounds (0.0003 to 20 μM) for 60 minutes and followed by stimulation with IL-4 (2 ng/mL) or IL-13 (20 ng/mL) at 37° C. for 15 minutes. […]
(§4) After overnight incubation at 4° C., anti-pSTAT stained samples were transferred into 96-well polypropylene U-bottom plates and flow cytometric analysis was performed on a LSR Fortessa™ equipped with a HTS plate loader. […] Background fluorescence was defined using unstimulated cells and a gate was placed at the foot of the peak to include ˜0.5% gated population. […]

JAK2 = JAK2 (Homo sapiens, UniProt O60674); assay: JAK Caliper Enzyme Assay at 1 mM ATP (JAK2); type: biochemical
Procedure: as §1, §2

IL-21 induced pSTAT3 = assay: IL-21-induced pSTAT3 in human whole blood (lymphocytes); type: cell-based; settings: Lymphocyte, JAK1/JAK3, read-out: IL-21 induced pSTAT3, cellular potency IC50
Procedure: as §3, §4

Sequence of TYK2 (P29597 whole entry): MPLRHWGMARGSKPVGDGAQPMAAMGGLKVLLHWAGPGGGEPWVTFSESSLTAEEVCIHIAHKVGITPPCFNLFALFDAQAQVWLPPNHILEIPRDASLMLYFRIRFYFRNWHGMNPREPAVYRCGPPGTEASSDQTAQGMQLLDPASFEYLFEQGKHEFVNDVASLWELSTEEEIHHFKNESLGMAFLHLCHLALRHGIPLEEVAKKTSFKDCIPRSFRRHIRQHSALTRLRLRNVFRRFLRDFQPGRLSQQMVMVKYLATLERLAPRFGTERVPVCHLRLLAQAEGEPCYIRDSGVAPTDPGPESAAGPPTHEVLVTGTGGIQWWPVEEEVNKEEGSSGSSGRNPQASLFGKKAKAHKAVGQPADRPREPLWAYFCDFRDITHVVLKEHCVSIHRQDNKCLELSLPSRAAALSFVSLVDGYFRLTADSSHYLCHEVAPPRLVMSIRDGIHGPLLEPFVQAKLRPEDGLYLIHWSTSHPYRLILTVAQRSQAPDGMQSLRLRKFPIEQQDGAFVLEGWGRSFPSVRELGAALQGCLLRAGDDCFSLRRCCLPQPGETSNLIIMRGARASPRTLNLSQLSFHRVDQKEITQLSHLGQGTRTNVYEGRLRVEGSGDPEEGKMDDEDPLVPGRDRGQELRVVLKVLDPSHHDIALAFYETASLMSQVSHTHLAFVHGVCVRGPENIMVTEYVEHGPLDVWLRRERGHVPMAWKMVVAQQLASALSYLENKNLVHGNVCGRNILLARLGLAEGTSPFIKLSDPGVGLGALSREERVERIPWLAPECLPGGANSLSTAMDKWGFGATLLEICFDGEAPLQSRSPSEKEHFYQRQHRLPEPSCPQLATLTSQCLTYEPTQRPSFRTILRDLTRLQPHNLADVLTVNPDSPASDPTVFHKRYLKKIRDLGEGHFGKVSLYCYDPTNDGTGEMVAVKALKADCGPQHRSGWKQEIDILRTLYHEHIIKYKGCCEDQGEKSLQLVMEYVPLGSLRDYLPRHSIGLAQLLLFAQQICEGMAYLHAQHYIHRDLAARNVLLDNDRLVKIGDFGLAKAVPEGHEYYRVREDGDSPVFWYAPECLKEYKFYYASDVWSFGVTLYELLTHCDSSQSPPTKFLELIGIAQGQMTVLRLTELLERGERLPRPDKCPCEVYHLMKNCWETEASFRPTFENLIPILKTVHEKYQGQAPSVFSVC
Sequence of JAK2 (O60674 whole entry): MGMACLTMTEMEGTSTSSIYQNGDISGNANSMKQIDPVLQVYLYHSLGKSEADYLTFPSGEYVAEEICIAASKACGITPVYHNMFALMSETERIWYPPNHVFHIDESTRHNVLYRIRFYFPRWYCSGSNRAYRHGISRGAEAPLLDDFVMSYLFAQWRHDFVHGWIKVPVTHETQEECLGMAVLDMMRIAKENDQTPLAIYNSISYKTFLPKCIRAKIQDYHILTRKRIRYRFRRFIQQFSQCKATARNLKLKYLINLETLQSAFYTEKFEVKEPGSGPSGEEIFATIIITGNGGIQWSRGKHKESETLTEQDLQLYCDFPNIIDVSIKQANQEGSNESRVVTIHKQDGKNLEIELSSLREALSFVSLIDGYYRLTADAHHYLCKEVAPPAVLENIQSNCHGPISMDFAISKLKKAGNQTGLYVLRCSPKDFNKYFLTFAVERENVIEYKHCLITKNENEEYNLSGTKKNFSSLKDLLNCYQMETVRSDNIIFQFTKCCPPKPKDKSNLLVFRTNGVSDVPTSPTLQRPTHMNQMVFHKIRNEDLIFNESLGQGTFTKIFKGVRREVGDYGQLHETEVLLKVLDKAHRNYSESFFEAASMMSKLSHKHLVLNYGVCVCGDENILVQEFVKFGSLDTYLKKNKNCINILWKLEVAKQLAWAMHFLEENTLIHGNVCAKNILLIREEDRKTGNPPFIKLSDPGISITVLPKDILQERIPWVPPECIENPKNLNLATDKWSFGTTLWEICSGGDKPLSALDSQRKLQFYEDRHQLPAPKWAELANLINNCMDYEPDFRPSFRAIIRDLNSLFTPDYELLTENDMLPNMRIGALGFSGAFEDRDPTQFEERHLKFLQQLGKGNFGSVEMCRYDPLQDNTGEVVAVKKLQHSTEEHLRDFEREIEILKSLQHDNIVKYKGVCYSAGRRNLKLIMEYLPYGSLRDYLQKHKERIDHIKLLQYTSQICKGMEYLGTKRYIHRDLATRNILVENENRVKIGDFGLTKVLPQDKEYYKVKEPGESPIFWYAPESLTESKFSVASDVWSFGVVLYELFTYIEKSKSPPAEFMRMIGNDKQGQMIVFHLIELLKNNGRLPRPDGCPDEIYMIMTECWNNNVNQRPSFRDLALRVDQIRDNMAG

C[C@H](O)CS(=O)(=O)N[C@H]1C[C@@H](N(C)c2ncnc3[nH]ccc23)C1 (single isomer, unassigned) [IA (M2)]
pIC50 (TYK2): 5.92
pIC50 (IFNg induced pSTATI): 5.67
pIC50 (JAK2): 6.05
pIC50 (IL-21 induced pSTAT3): 6.31

C[C@@H](O)CS(=O)(=O)N[C@H]1C[C@@H](N(C)c2ncnc3[nH]ccc23)C1 (single isomer, unassigned) [IC (M3)]
pIC50 (TYK2): 5.47
pIC50 (IFNg induced pSTATI): 5.37
pIC50 (JAK2): 5.64
pIC50 (IL-21 induced pSTAT3): 5.98

CN(c1ncnc2[nH]ccc12)[C@H]1C[C@@H](NS(=O)(=O)CCCO)C1 [IB (M1), 3-Hydroxy-N-(cis-3-(methyl(7H-pyrrolo[2,3-d]pyrimidin-4-yl)amino)cyclobutyl)propane-1-sulfonamide]
pIC50 (TYK2): 5.50
pIC50 (IFNg induced pSTATI): 5.71
pIC50 (JAK2): 5.94
pIC50 (IL-21 induced pSTAT3): 6.07
